Results: patent US11021481B2, “Substituted isoindolin-1-ones and 2,3-dihydro-1h-pyrrolo[3,4-c]pyridin-1-ones as HPK1 antagonists” (Nimbus Saturn, Inc., priority 2019, dated 2021)
Counter-ions that a name gives are not always drawn.

These compounds were tested against HPK1 (Homo sapiens (Human), UniProt Q92918) (assay: HPK1 biochemical enzyme assay (microfluidic mobility shift assay)). Details: 1.5 nM HPK1, ATP 1 mM final, 30 min preincubation, 60 min at RT, Caliper EZ Reader; read-out: HPK1 1000UMATP caliper IC50.
Sequence of HPK1 (Q92918 whole entry): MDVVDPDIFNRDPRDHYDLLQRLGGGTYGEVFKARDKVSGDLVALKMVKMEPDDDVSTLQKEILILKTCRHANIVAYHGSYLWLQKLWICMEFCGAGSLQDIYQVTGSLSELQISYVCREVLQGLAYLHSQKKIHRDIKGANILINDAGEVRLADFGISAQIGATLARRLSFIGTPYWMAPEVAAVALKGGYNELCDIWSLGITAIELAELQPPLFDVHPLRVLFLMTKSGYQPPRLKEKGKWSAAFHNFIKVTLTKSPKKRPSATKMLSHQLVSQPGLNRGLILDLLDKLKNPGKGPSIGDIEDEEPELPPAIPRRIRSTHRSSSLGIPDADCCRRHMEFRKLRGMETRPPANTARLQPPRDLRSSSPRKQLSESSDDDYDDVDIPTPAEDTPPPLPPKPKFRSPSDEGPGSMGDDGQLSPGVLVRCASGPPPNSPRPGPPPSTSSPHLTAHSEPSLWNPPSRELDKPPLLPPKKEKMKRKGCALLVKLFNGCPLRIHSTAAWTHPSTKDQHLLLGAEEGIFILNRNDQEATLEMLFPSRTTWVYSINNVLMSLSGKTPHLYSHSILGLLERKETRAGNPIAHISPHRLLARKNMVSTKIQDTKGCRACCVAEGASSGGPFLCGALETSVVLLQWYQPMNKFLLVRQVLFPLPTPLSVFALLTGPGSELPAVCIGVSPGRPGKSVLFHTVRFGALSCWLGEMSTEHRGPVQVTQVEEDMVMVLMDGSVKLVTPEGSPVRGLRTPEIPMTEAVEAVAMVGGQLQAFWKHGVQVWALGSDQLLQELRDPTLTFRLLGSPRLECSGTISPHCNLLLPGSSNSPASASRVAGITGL
Outline: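 Mobility shift readout of HPK1 activity after a 60 min RT reaction with 1 mM ATP, 1 μM substrate and 5 mM MgCl2. Enzyme/substrate mix was first exposed to compounds for 30 min, using ten-point curves topping at 3 μM final.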

Compound | IC50 [nM]
C[C@H]1COCCN1c1ccc(Nc2ccc(-c3cnc4cnccn34)c3c2C(=O)NC3)nc1 [I-314, (S)-4-(imidazo[1,2-a]pyrazin-3-yl)-7-((5-(3-methylmorpho-lino)pyridin-2-yl)amino)isoin-dolin-1-one] | < 100
CN(C)C(C)(C)C1CCCN(c2ccc(Nc3ccc(-c4cnc5cc(F)ccn45)c4c3C(=O)NC4)nc2)C1 (stereo not shown) [I-582, 7-((5-(3-(2-(dimethylami-no)propan-2-yl)piperidin-1-yl)pyridin-2-yl)amino)-4-(7-fluoroimidazo [1,2-a]pyridin-3-yl)isoindolin-1-one] | < 100
O=C1NCc2c(-c3cnc4cc(F)ccn34)ccc(Nc3ccc(N4CCC[C@H](O)C4)cn3)c21 [I-175, 4-(7-fluoroimidazo [1,2-a]pyridin-3-yl)-7-[[5-[(3S)-3-hydroxy-1-piperidyl]-2-pyridyl]amino] isoindolin-1-one] | < 100
COC[C@@H]1CN(c2ccc(Nc3cnc(-c4ccnc5c4ccn5C)c4c3C(=O)NC4)nc2)CC[C@@H]1O [I-436, 7-((5-((3S,4S)-4-hydroxy-3-(methoxymeth-yl)piperidin-1-yl)pyridin-2-yl)amino)-4-(1-methyl-1H-pyrrolo[2,3-b]pyridin-4-yl)-2,3-dihydro-1H-pyrrolo[3,4-c]pyridin-1-one] | < 100
O=C1NCc2c(-c3cnc4cc(F)ccn34)ccc(Nc3cccc(N4CC[C@@H]5CNC[C@@H]54)n3)c21 [I-498, 4-(7-fluoroimidazo [1,2-a]pyridin-3-yl)-7-((6-((3aR,6aR)-hexahydropy-rrolo[3,4-b]pyrrol-1(2H)-yl)pyridin-2-yl)amino)isoin-dolin-1-one] | < 100
CN(C)Cc1nc(Nc2ccc(-c3cnc4cc(F)ccn34)c3c2C(=O)NC3)ccc1[C@@H]1CCN(C)C(=O)C1 [I-557, (R)-7-((6-((dimethylamino)-methyl)-5-(1-methyl-2-oxopiperidin-4-yl)pyridin-2-yl)amino)-4-(7-fluoroimidazo [1,2-a]pyridin-3-yl)isoindolin-1-one] | < 100
Cn1ccc2c(-c3ccc(Nc4ccc(N5CCCNCC5)cn4)c4c3CNC4=O)ccnc21 [I-79, 7-[[5-(1,4-diazepan-1-yl)-2-pyridyl]amino]-4-(1-methylpyrrolo [2,3-b]pyridin-4-yl)isoindolin-1-one] | < 100
CN1CCN(c2ccc(Nc3ccc(-c4cccc5nccn45)c4c3C(=O)NC4)nc2)CC1 [I-25, 4-imidazo[1,2-a]pyridin-5-yl-7-[[5-(4-methylpiperazin-1-yl)-2-pyridyl]amino] isoindolin-1-one] | 100 to 1000
Cc1cnc2[nH]cc(-c3ccc(Nc4ccc(N5CCN(C)CC5)cn4)c4c3CNC4=O)c2c1 [I-30, 7-[[5-(4-methylpiperazin-1-yl)-2-pyridyl]amino]-4-(5-methyl-1H-pyrrolo[2,3-b]pyridin-3-yl)-isoindolin-1-one] | 100 to 1000
CN1CC[C@H](c2ccc(Nc3ccc(-c4cnc5cc(F)ccn45)c4c3C(=O)NC4)nc2)C1=O [I-336, (R)-4-(7-fluoroimidazo [1,2-a]pyridin-3-yl)-7-((5-(1-methyl-2-oxopyrrolidin-3-yl)pyridin-2-yl)amino)isoin-dolin-1-one] | < 100
CN1CCOC2(CCCN(c3ccc(Nc4ccc(-c5cnc6cc(F)ccn56)c5c4C(=O)NC5)nc3)C2)C1 (stereo not shown) [I-496, 4-(7-fluoroimidazo [1,2-a]pyridin-3-yl)-7-[[5-(4-methyl-1-oxa-4,8-diazaspiro[5.5]undecan-8-yl)-2-pyridyl]amino) isoindolin-1-one] | < 100
CNC1CN(c2cccc(Nc3cnc(-c4ccnc5c4ccn5C)c4c3C(=O)NC4)n2)C1 [I-449, 7-[[6-[3-(methylamino)azetidin-1-yl]-2-pyridyl]amino]-4-(1-methylpyrrolo [2,3-b]pyridin-4-yl)-2,3-dihydropyrrolo [3,4-c]pyridin-1-one Formic acid salt] | < 100
Cn1ccc2c(-c3ncc(Nc4ccc(N5CCC[C@@](O)(CN6CCOCC6)C5)cn4)c4c3CNC4=O)ccnc21 (single isomer, unassigned) [I-673] | < 100
O=C1NCc2c(-c3cnc4cc(C(F)F)ccn34)ccc(Nc3ccc(C4(O)CCOCC4)cn3)c21 [I-608, 4-(7-(difluoromethyl)-imidazo[1,2-a]pyridin-3-yl)-7-((5-(4-hydroxytetra-hydro-2H-pyran-4-yl)pyridin-2-yl)amino)isoin-dolin-1-one] | < 100
CN[C@@H]1CCCN(c2ccc(Nc3ccc(-c4ccnc5c4ccn5C)c4c3C(=O)NC4)nc2)C1 [I-100, 7-[[5-[(3R)-3-(methviamino)-1-piperidyl]-2-pyridyl]amino]-4-(1-methylpyrrolo [2,3-b]pyridin-4-yl)isoindolin-1-one] | < 100
(S)-7-((6- ((dimethylamino)- methyl)-5- (tetrahydrofuran- 3-yl)pyridin- 2-yl)amino)-4- (1-methyl-1H- indol-4-yl)- 2,3-dihydro- 1H-pyrrolo[3,4- c]pyridin-1-one [I-540] | < 100

Compound | IC50 [nM]
O=C1NCc2c(-c3cnc4cc(F)ccn34)ccc(Nc3ccc([C@H]4CCOC4)c(CNCC(F)F)n3)c21 (single isomer, unassigned) [I-739] | < 100
COCCn1ccc2c(-c3ccc(Nc4ccc(N5CCN(C)CC5)cn4)c4c3CNC4=O)ccnc21 [I-47, 4-[1-(2-methoxyethyl)pyrrolo[2,3-b]pyridin-4-yl]-7-[[5-(4-methylpiperazin-1-yl)-2-pyridyl]amino] isoindolin-1-one] | < 100
Cc1ccn2c(-c3ccc(Nc4ccc(N5CCOC(CN(C)C)C5)cn4)c4c3CNC4=O)cnc2c1F (stereo in doubt) [I-614, (R)-7-((5-(2-((dimethylamino)-methyl)mor-pholino)pyridin-2-yl)amino)-4-(8-fluoro-7-methylimidazo [1,2-a]pyridin-3-yl)isoindolin-1-one] | < 100
O=C1NCc2c(-c3cnn4cc(F)ccc34)ccc(Nc3ccc(N4CCC(O)CC4)cn3)c21 [I-465, 4-(6-fluoropyrazolo [1,5-a]pyridin-3-yl)-7-[[5-(4-hydroxy-1-piperidyl)-2-pyridyl]amino] isoindolin-1-one] | < 100
Cc1ccn2c(-c3ccc(Nc4ccc(N5CCC[C@H](O)C5)cn4)c4c3CNC4=O)cnc2c1 [I-170, 7-[[5-[(3S)-3-hydroxy-1-piperidyl]-2-pyridyl]amino]-4-(7-methylimidazo [1,2-a]pyridin-3-yl)isoindolin-1-one] | < 100
Cn1nccc2c(-c3ccc(Nc4ccc(N5CCC(O)CC5)cn4)c4c3CNC4=O)cnc1-2 [I-375, 7-((5-(4-hydroxy-piperidin-1-yl)pyridin-2-yl)amino)-4-(1-methyl-1H-pyrrolo[2,3-c]pyridazin-5-yl)isoindolin-1-one] | > 1000
O=C1NCc2c(-c3cnc4cc(F)ccn34)ccc(Nc3ccc(N4CC[C@@H](F)[C@H](O)C4)cn3)c21 [I-347, 7-((5-((3R,4R)-4-fluoro-3-hydroxy-piperidin-1-yl)pyridin-2-yl)amino)-4-(7-fluoroimidazo [1,2-a]pyridin-3-yl)isoindolin-1-one] | < 100
Cn1ccc2c(-c3ncc(Nc4ccc([C@H]5CCOC5)c(CN5CC[C@@H](O)C5)n4)c4c3CNC4=O)ccnc21 [I-810, 7-((6-(((R)-3-hydroxypyrroli-din-1-yl)methyl)-5-((R)-THF-3-yl)pyridin-2-yl)amino)-4-(1-methyl-1H-pyrrolo[2,3-b]pyridin-4-yl)-2,3-dihydro-1H-pyrrolo[3,4-c]pyridin-1-one] | < 100
Cc1ccn2c(-c3ccc(Nc4ccc(N5CCO[C@H](C(C)(C)O)C5)cn4)c4c3CNC4=O)cnc2n1 [I-645, (S)-7-((5-(2-(2-hydroxypropan-2-yl)morpliolino)pyridin-2-yl)amino)-4-(7-methylimidazo [1,2-a]pyrimidin-3-yl) isoindolin-1-one] | < 100
Cn1ccc2c(-c3ncc(Nc4cccc(N5C[C@H](CN6CCC6)CCC5=O)n4)c4c3CNC4=O)ccnc21 [I-689, (S)-7-((6-(5-(azetidin-1-ylmethyl)-2-oxopiperidin-1-yl)pyridin-2-yl)amino)-4-(1-methyl-1H-pyrrolo[2,3-b]pyridin-4-yl)-2,3-dihydro-1H-pyrrolo[3,4-c]pyridin-1-one] | 100 to 1000
CN(C)Cc1nc(Nc2ccc(-c3cnc4cc(F)ccn34)c3c2C(=O)NC3)ccc1O[C@H]1CCOC1 [I-544, 7-[[6-[(dimethylamino)-methyl]-5-[(3S)-tetrahydrofuran-3-yl]oxy-2-pyridyl]amino]-4-(7-fluoroimidazo [1,2-a]pyridin-3-yl)isoindolin-1-one] | < 100
Cc1ccn2c(-c3ccc(Nc4ccc(N5CCC(O)(CN6CCN(C)CC6)CC5)cn4)c4c3CNC4=O)cnc2c1F [I-444, 4-(8-fluoro-7-methylimidazo [1,2-a]pyridin-3-yl)-7-((5-(4-hydroxy-4-((4-methylpiperazin-1-yl)methyl)piper-idin-1-yl)pyridin-2-yl)amino)isoin-dolin-1-one] | < 100
CN(C)Cc1nc(Nc2ccc(-c3cnc4cnccn34)c3c2C(=O)NC3)ccc1C1CCOCC1 [I-850, 7-[[6-[(dimethylami-no)methyl]-5-tetrahydropyran-4-yl-2-pyridyl]amino]-4-imidazo[1,2-a]pyrazin-3-yl-isoindolin-1-one] | < 100
Cc1ccn2c(-c3ccc(Nc4ccc(N5CCO[C@@H](C(C)(C)O)C5)cn4)c4c3CNC4=O)cnc2n1 [I-646, (R)-7-((5-(2-(2-hydroxypropan-2-yl)morpholino)pyridin-2-yl)amino)-4-(7-methylimidazo [1,2-a]pyrimidin-3-yl) isoindolin-1-one] | < 100
Cc1c[nH]c2nccc(-c3ccc(Nc4ccc(N5CCN(C)CC5)cn4)c4c3CNC4=O)c12 [I-42, 7-[[5-(4-methylpiperazin-1-yl)-2-pyridyl]amino]-4-(3-methyl-1H-pyrrolo[2,3-b]pyridin-4-yl)isoindolin-1-one] | < 100
